Results as given in US20120220581A1, “IMIDAZO[1,2-b]PYRIDAZINE DERIVATIVES AND THEIR USE AS PDE10 INHIBITORS” (Janssen-Cilag, S.A., priority 2009, published 2012).

Experiments:
[1] = tested on: apomorphine-induced stereotypy in rats; assay: Apomorphine-induced stereotypy in rats (APO); format: in vivo; conditions: Rattus norvegicus, n.d.: found not active at threshold dose 2.5 mg/kg or 10 mg/kg (a)
Method: Apomorphine (1.0 mg/kg, i.v.)-induced stereotypy (compulsive sniffing, licking, chewing) was scored every 5 min over the first hour after injection of apomorphine, following a 1 hour interval pre-treatment with the test compound. The score system was: (3) pronounced, (2) moderate, (1) slight, and (0) absent.

[2] = target: T1, Rat recombinant PDE10A (rPDE10A2) (Rattus norvegicus, UniProt Q9QYJ6); assay: In vitro assay PDE10A (SPA, 3H-cAMP); format: biochemical; conditions: pIC50 corresponds to the −log IC50 expressed in mol/L; read-out: PDE10A2 pIC50 (converted)
T1 construct: inferred from the Ni metal chelate purification; made in house; host or cells: Sf9 insect cells (baculovirus)
T1 sequence (Q9QYJ6 1-794): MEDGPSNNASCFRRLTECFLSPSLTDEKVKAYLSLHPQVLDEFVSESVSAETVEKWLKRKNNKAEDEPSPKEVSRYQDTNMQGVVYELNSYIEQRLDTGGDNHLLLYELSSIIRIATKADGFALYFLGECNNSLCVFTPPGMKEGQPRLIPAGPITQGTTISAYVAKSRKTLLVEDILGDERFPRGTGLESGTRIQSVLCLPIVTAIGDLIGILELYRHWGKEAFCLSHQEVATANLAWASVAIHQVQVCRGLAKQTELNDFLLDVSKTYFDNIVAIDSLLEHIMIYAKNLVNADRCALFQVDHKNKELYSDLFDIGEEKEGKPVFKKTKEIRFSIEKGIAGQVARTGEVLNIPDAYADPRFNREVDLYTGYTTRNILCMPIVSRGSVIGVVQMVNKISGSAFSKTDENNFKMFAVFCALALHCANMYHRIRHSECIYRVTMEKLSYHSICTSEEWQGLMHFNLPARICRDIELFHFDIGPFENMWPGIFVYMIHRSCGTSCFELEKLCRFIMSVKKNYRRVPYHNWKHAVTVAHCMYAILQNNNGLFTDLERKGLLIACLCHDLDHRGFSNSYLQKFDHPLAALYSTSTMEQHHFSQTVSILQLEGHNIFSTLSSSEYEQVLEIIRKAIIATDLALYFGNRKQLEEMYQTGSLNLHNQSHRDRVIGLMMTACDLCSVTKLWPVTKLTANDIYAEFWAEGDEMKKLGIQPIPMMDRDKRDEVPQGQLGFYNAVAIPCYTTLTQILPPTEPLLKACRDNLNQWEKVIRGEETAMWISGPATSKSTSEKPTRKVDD
Method: Rat recombinant PDE10A (rPDE10A2) was expressed in Sf9 cells using a recombinant rPDE10A baculovirus construct. Cells were harvested after 48 h of infection and the rPDE10A protein was purified by metal chelate chromatography on Ni-sepharose 6FF. Tested compounds were dissolved and diluted in 100% DMSO to a concentration 100 fold of the final concentration in the assay. Compound dilutions (0.4 μl) were added in 384 well plates to 20 μl of incubation buffer (50 mM Tris pH 7.8, 8.3 mM MgCl2, 1.7 mM EGTA). 10 μl of rPDE10A enzyme in incubation buffer was added and the reaction was started by addition of 10 μl substrate to a final concentration of 60 nM cAMP and 0.008 μCi ^3H-cAMP. The reaction was incubated for 60 minutes at room temperature. […] After sedimentation of the beads during 30 minutes the radioactivity was measured in a Perkin Elmer Topcount scintillation counter and results were expressed as cpm. For blanc values the enzyme was omitted from the reaction and replaced by incubation buffer. Control values were obtained by addition of a final concentration of 1% DMSO instead of compound. The same assay principle is applied for the measurement of the affinity of the compound for other members of the PDE family with appropriate modifications in incubation buffer, substrate concentration, incubation time and stop solution.

[3] = po, * not soluble, tested orally as a suspension

IC50 [2] [nM]	SMILES	ED50 ([1]; not further tested) [mg/kg]	ED50 [1, 3] [mg/kg]
66.1	CCc1ccc(-c2c(C3CC3)nc3c(N4CCOCC4)ccnn23)cn1 [compound 106, 2-cyclopropyl-3-(6-ethyl-3-pyridinyl)-8-(4-morpholinyl)-imidazo[1,2-b]pyridazine]	> 2.5	–
50.1	Cc1nc2c(N3CCOCC3)ccnn2c1-c1ccc(CCOC(C)C)nc1 [compound 76, 2-methyl-3-[6-[2-(1-methylethoxy)ethyl]-3-pyridinyl]-8-(4-morpholinyl)-imidazo[1,2-b]pyridazine]	> 2.5	–
115	CCc1ccc(-c2c(C)nc3c(-c4ccncc4)cc(C)nn23)cn1 [compound 88, 3-(6-ethyl-3-pyridinyl)-2,6-dimethyl-8-(4-pyridinyl)-imidazo[1,2-b]pyridazine]	> 2.5	–
191	COC(C)(C)Cc1ccc(-c2cnc3c(-c4ccncc4)ccnn23)cn1 [compound 60, 3-[6-(2-methoxy-2-methylpropyl)-3-pyridinyl]-8-(4-pyridinyl)-imidazo[1,2-b]pyridazine]	> 2.5	–
69.2	COCCn1cc(-c2c(C(F)(F)F)nc3c(N4CCOCC4)ccnn23)cn1 [compound 139, 3-[1-(2-methoxyethyl)-1H-pyrazol-4-yl]-8-(4-morpholinyl)-2-(trifluoromethyl)-imidazo[1,2-b]pyridazine]	–	> 2.5
91.2	COC(C)(C)Cc1ccc(-c2c(C)nc3c(N4CCOCC4)cc(C)nn23)cn1 [compound 47, 3-[6-(2-methoxy-2-methylpropyl)-3-pyridinyl]-2,6-dimethyl-8-(4-morpholinyl)-imidazo[1,2-b]pyridazine]	> 2.5	–
195	COCCc1ccc(-c2cnc3c(N4CCOCC4)ccnn23)cn1 [compound 11, 3-[6-(2-methoxyethyl)-3-pyridinyl]-8-(4-morpholinyl)-imidazo[1,2-b]pyridazine]	> 2.5	–
97.7	COCCOc1ccc(-c2c(C3CC3)nc3c(N4CCOCC4)ccnn23)cn1 [compound 73, 2-cyclopropyl-3-[6-(2-methoxyethoxy)-3-pyridinyl]-8-(4-morpholinyl)-imidazo[1,2-b]pyridazine]	> 2.5	–
145	c1cc(N2CCOCC2)c2ncc(-c3ccc(C4CCOCC4)nc3)n2n1 [compound 82, 8-(4-morpholinyl)-3-[6-(tetrahydro-2H-pyran-4-yl)-3-pyridinyl]-imidazo[1,2-b]pyridazine]	> 2.5	–
58.9	COCCc1ccc(-c2c(C(F)(F)F)nc3c(N4CCOCC4)ccnn23)cn1 [compound 145, 3-[6-(2-methoxyethyl)-3-pyridinyl]-8-(4-morpholinyl)-2-(trifluoromethyl)-imidazo[1,2-b]pyridazine]	> 2.5	–
21.9	CCc1ccc(-c2c(C3CC3)nc3c(-c4ccncc4)ccnn23)cn1 [compound 87, 2-cyclopropyl-3-(6-ethyl-3-pyridinyl)-8-(4-pyridinyl)-imidazo[1,2-b]pyridazine]	> 2.5	–
234	COCCOc1ccc(-c2c(C)nc3c(-c4ccncc4)cc(C4CC4)nn23)cn1 [compound 59, 6-cyclopropyl-3-[6-(2-methoxyethoxy)-3-pyridinyl]-2-methyl-8-(4-pyridinyl)-imidazo[1,2-b]pyridazine]	> 2.5	–
158	CO[C@H]1CCN(c2ccc(-c3c(C)nc4c(N5CCOCC5)ccnn34)cn2)C1 [compound 113, 3-[6-[(3S)-3-methoxy-1-pyrrolidinyl]-3-pyridinyl]-2-methyl-8-(4-morpholinyl)-imidazo[1,2-b]pyridazine]	> 2.5	–
324	COCCOc1ccc(-c2c(C)nc3c(N4CCOCC4)cc(C)nn23)cn1 [compound 69, 3-[6-(2-methoxyethoxy)-3-pyridinyl]-2,6-dimethyl-8-(4-morpholinyl)-imidazo[1,2-b]pyridazine]	> 2.5	–
126	Cc1cc(-c2ccncc2)c2nc(C)c(-c3ccc(N4CCOCC4)nc3)n2n1 [compound 70, 2,6-dimethyl-3-[6-(4-morpholinyl)-3-pyridinyl]-8-(4-pyridinyl)-imidazo[1,2-b]pyridazine]	> 2.5	–
251	CCc1ccc(-c2cnc3c(N4CCOCC4)ccnn23)cn1 [compound 109, 3-(6-ethyl-3-pyridinyl)-8-(4-morpholinyl)-imidazo[1,2-b]pyridazine]	> 2.5	–
31.6	Cc1nc2c(N3CCOCC3)ccnn2c1-c1ccc(C2CCOCC2)nc1 [compound 27, 2-methyl-8-(4-morpholinyl)-3-[6-(tetrahydro-2H-pyran-4-yl)-3-pyridinyl]-imidazo[1,2-b]pyridazine]	> 2.5	–
38	COC(C)(C)Cc1ccc(-c2c(C3CC3)nc3c(-c4ccncc4)cc(C)nn23)cn1 [compound 55, 2-cyclopropyl-3-[6-(2-methoxy-2-methylpropyl)-3-pyridinyl]-6-methyl-8-(4-pyridinyl)-imidazo[1,2-b]pyridazine]	> 2.5	–
692	COCCn1cc(-c2c(C(C)C)nc3c(N4CCOCC4)ccnn23)cn1 [compound 120, 3-[1-(2-methoxyethyl)-1H-pyrazol-4-yl]-2-(1-methylethyl)-8-(4-morpholinyl)-imidazo[1,2-b]pyridazine]	> 10	–
50.1	COCCn1cc(-c2c(C)nc3c(-c4ccncc4)cc(C4CC4)nn23)cn1 [compound 126, 6-cyclopropyl-3-[1-(2-methoxyethyl)-1H-pyrazol-4-yl]-2-methyl-8-(4-pyridinyl)-imidazo[1,2-b]pyridazine]	> 2.5	–
55	CCOCc1ccc(-c2c(C)nc3c(N4CCOCC4)ccnn23)cn1 [compound 17, 3-[6-(ethoxymethyl)-3-pyridinyl]-2-methyl-8-(4-morpholinyl)-imidazo[1,2-b]pyridazine]	–	> 2.5
79.4	COCCc1ccc(-c2c(C)nc3c(-c4ccncc4)cc(C)nn23)cn1 [compound 24, 3-[6-(2-methoxyethyl)-3-pyridinyl]-2,6-dimethyl-8-(4-pyridinyl)-imidazo[1,2-b]pyridazine]	> 2.5	–
123	Cc1nc2c(N3CCOCC3)cc(C3CC3)nn2c1-c1ccc(C2CCOCC2)nc1 [compound 78, 6-cyclopropyl-2-methyl-8-(4-morpholinyl)-3-[6-(tetrahydro-2H-pyran-4-yl)-3-pyridinyl]-imidazo[1,2-b]pyridazine]	> 2.5	–
112	COCCc1ccc(-c2c(C)nc3c(N4CCOCC4)cc(C)nn23)cn1 [compound 23, 3-[6-(2-methoxyethyl)-3-pyridinyl]-2,6-dimethyl-8-(4-morpholinyl)-imidazo[1,2-b]pyridazine]	> 2.5	–
40.7	COCC(C)(C)c1ccc(-c2c(C)nc3c(N4CCOCC4)ccnn23)cn1 [compound 4, 3-[6-(2-methoxy-1,1-dimethylethyl)-3-pyridinyl]-2-methyl-8-(4-morpholinyl)-imidazo[1,2-b]pyridazine]	> 2.5	–
61.7	COCCn1cc(-c2c(C3CC3)nc3c(N4CCOCC4)ccnn23)cn1 [compound 119, 2-cyclopropyl-3-[1-(2-methoxyethyl)-1H-pyrazol-4-yl]-8-(4-morpholinyl)-imidazo[1,2-b]pyridazine]	–	> 10
